{
  "source": "patent US9850527B2",
  "about": "“Modified stem-loop oligonucleotide mediated reverse transcription and base-spacing constrained quantitative PCR” (National University of Singapore, priority 2010, dated 2017)",
  "molecules": {"B1": {"name": "GDNF: GDNF used to stimulate U251 glioblastoma cells at 100 ng/ml (protein, UniProt P39905 78-211, looked up)", "Glial cell line-derived …": "SPDKQMAVLPRRERNRQAAAANPENSRGKGRRGQRGKNRGCVLTAIHLNVTDLGLGYETKEELIFRYCSGSCDAAETTYDKILKNLSRNRRLVSDKVGQACCRPIAFDDDLSFLDDNLVYHILRKHSAKRCGCI"}},
  "key": {"[1]": {"tested_on": "miRNA expression in U251 cells", "assay": "GDNF-regulated miRNA expression in U251 cells quantified by hemi-nested real-time RT-PCR", "type": "cell-based, human", "experimental": "Human glioblastoma cell lines A172 and U251 were cultured in DMEM supplemented with 10% fetal bovine serum (FBS, Sigma) and antibiotics (100 U/ml penicillin and 100 μg/ml streptomycin) in a 5% CO2 humidified incubator at 37° C. U251 cells were seeded at 200,000 cells per well in E-well plate for 24 h and incubated with FBS-free DMEM medium for 12-16 h. The cells were then stimulated with 100 ng/ml of GDNF for defined periods of time in DMEM. For MEK inhibitor studies, the cells were pre-incubated with 5 μM U0126 (Promega, Madison, Wis., USA) for 45 min in DMEM prior to GDNF stimulations. Total RNA from untreated or GDNF treated glioblastoma cells was isolated using TRIzol reagent (Invitrogen) in the presence of 20 μg/ml linear acrylamide (Ambion) according to the manufacturer's instructions. The extracted RNA samples were then quantified using spectrophotometry and the integrity examined by denaturing RNA gel electrophoresis. […]\nReal-time PCR was performed on the CFX96 system (Bio-Rad, Hercules, Calif., USA) using SYBR GREEN™ I. Real-time PCR for precursor miRNA and U6 snRNA was performed according to previous reports (Schmittgen et al., 2004; Jiang et al., 2005). […] The threshold cycles (Ct) were calculated automatically using the CFX manager software (Bio-Rad). […]"}, "ERK1/2 MAPK": {"tested_on": "ERK1/2 MAPK", "assay": "GDNF-induced ERK1/2 MAPK signaling activation in U251 cells (Western blot, phospho ERK1/2)", "type": "cell-based, human", "details": "GDNF 100 ng/ml", "experimental": "FIG. 18. GDNF-induced signaling activation in U251 human glioblastoma cells. Control and GDNF stimulated U251 cells were lysed with 2% SDS. Total protein lysates were quantified using microBCA protein assay (Pierce, Rockford, Ill., USA). Total protein (10 μg) were separated by SDS-PAGE and probed with antibodies against phospho ERK1/2 (Cell […] Technologies, Danvers, Mass., USA). The blots were striped in Western Blot Stripping Buffer (Pierce) and re-probed with total ERK1/2 (Cell Signaling Technologies) to verify equal loading. Chemiluminescence was imaged and analyzed by ChemiDoc system (Bio-Rad). A) Time-course of ERK1/2 MAPK activation by GDNF (100 ng/ml) in U251 cells. B) GDNF-induced ERK1/2 MAPK activation was inhibited by pre-treatment of MEK inhibitor U0126 (5 μM).\nHuman glioblastoma cell lines A172 and U251 were cultured in DMEM supplemented with 10% fetal bovine serum (FBS, Sigma) and antibiotics (100 U/ml penicillin and 100 μg/ml streptomycin) in a 5% CO2 humidified incubator at 37° C. U251 cells were seeded at 200,000 cells per well in E-well plate for 24 h and incubated with FBS-free DMEM medium for 12-16 h. The cells were then stimulated with 100 ng/ml of GDNF for defined periods of time in DMEM. […] The extracted RNA samples were then quantified using spectrophotometry and the integrity examined by denaturing RNA gel electrophoresis."}, "Taq polymerase": {"biological_target": "Taq polymerase (Thermus aquaticus, UniProt P19821)", "sequence (P19821 whole entry)": "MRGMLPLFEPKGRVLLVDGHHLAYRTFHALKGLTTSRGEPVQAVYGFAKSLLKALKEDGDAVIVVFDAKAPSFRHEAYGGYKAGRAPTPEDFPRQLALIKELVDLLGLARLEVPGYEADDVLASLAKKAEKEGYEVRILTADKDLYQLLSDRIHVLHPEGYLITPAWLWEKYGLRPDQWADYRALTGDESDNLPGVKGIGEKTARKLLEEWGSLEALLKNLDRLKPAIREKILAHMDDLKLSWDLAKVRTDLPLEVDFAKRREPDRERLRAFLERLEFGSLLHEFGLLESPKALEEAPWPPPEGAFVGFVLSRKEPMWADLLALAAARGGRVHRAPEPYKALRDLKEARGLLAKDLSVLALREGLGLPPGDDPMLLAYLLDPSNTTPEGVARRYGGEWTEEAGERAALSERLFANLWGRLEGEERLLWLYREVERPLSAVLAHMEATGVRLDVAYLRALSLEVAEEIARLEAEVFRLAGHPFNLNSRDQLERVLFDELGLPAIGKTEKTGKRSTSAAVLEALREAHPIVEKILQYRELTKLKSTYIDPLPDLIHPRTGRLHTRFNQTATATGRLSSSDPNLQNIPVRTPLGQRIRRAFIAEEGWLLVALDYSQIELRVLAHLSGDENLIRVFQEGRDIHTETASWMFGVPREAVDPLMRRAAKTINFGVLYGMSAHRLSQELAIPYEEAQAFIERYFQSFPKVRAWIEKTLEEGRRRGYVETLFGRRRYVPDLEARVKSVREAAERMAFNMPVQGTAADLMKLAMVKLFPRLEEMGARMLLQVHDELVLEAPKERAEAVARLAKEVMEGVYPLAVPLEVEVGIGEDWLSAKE", "details": "cited from earlier work"}},
  "data": [
    {"molecule": "N#CC(=C(/N)Sc1ccccc1N)/C(C#N)=C(\\N)Sc1ccccc1N", "note": "[U0126]", "values": [
      {"measurement": "inhibition of GDNF-induced up-regulation of the 6 miRNAs", "setting": "[1]; pretreatment with U0126, 24-plex assay", "value": "effectively inhibited"},
      {"measurement": "inhibition of GDNF-induced ERK1/2 MAPK activation", "setting": "ERK1/2 MAPK; U251 cells, pre-treatment with U0126 5 μM", "value": "inhibited"}
    ]},
    {"molecule": "Nc1ccc([C@H]2C[C@H](O)[C@@H](COP(=O)(O)OP(=O)(O)OP(=O)(O)O)O2)cn1", "note": "[d*CTP, 2-amino-5-(2′-deoxy-b-D-ribofuranosyl)pyridine-5′-triphosphate]", "values": [
      {"measurement": "inhibition in PCR catalysed by Taq polymerase", "setting": "Taq polymerase", "value": "strong inhibition"}
    ]},
    {"molecule": "Cc1cc([C@H]2C[C@H](O)[C@@H](COP(=O)(O)OP(=O)(O)OP(=O)(O)O)O2)c[nH]c1=O", "note": "[d*TTP, 5-(2′-deoxy-b-D-ribofuranosyl)-3-methyl-2-pyridone-5′-triphosphate]", "values": [
      {"measurement": "inhibition in PCR catalysed by Taq polymerase", "setting": "Taq polymerase", "value": "strong inhibition"}
    ]},
    {"molecule": "B1", "values": [
      {"measurement": "regulation of miRNA expression (miR-7, -21, -218, let-7f, -7g, -7i), fold change to non-stimulated control", "setting": "[1]; GDNF 100 ng/ml, temporal regulation", "value": "timedependent up-regulation"},
      {"measurement": "activation of ERK1/2 MAPK", "setting": "ERK1/2 MAPK; U251 human glioblastoma cells, time-course", "value": "induced time-dependent activation of ERK1/2 MAPK"}
    ]}
  ]
}
